Consider 4 substances from paper PMC10695616, “Rational design peptide inhibitors of Cyclophilin D as a potential treatment for acute pancreatitis” (Medicine, 2023).

pIC50: −log10 of the molar value. Ends that are not written are not given here.

The experiment concerns the target T1, Human recombinant CypD (Homo sapiens, UniProt P30405).
T1 construct: purchased Beyotime (Shanghai, China)
Kind of experiment: chymotrypsin coupled prolyl-isomerase inhibitory assay. The settings on record: Suc-AAPF-AMC substrate, peptide 0.001 to 100 μM, 25 °C. It counts as biochemical. On the procedure: The method for measuring half-maximal inhibitory concentration (IC50) values of the peptides against CypD was described previously as chymotrypsin coupled prolyl-isomerase assay. Human recombinant CypD was purchased from Beyotime (Shanghai, China). The substrate solution for inhibitory assay was prepared as 100 μM Suc-AAPF-AMC (Chymotrypsin Substrate II, Sigma–Aldrich, Shanghai, China) with varied concentration of selected peptide (varied from 0.001 to 100 μM), 15 μg/mL CypD, and 0.5 M LiCl/2,2,2-trifluoroethanol. Alpha-chymotrypsin from bovine pancreas was purchased from Sigma (Shanghai, China) and dissolved in 0.001 M HCl, the concentration for chymotrypsin was prepared to 5 mg/mL. For inhibitory assay, the 96-well plate was filled with 150 μL of the substrate solution and incubated at 25 °C for 1 hour, followed by adding 40 μL of the chymotrypsin solution. The fluorescent changes under 380 nm was captured every 5 seconds for 300 seconds using Mltrospec 3100. The IC50 value was calculated which indicated the peptide concentration needed for obtaining 50% of […] inhibitory activity.
The binding affinity of selected peptides against CypD was tested using a modified inhibitory assay.[37] […] The selected 5 peptides were preincubated with CypD to validate their capability for blocking CypD activity. […] Compound C-9 was previously reported as a strong binder of CypD,[37] therefore, we adopted compound C-9 as a reference sample to evaluate the binding activity of the designed peptides.

T1 sequence (P30405 30-207): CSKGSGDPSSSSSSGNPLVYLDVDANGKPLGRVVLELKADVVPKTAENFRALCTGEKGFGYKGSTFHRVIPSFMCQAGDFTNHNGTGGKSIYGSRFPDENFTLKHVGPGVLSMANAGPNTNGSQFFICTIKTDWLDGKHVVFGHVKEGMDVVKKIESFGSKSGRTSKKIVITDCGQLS

As usually defined, the pIC50 is −log10 of the IC50, conventionally taken in molar units. Consider WACKN [WACKN], for which the pIC50 was 5.61.

Turning to WACKQ [WACKQ], the pIC50 is 4.98.

With WACLQ [WACLQ], the pIC50 is 6.43.

For the substance WACNQ [WACNQ], the pIC50 is 5.58.
